How the values were obtained:
Test in all cases: RBC kinase panel
Format in all cases: biochemical
Settings in all cases: ATP 10 μM, Data1, Data2
[1] = biological target: T1, DDR2 (Homo sapiens, UniProt Q16832)
T1 construct: purchased Reaction Biology Corporation
Method in brief: (§1)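 In this selectivity screen, one compound concentration (1 μM) was applied to 369 human kinases, with duplicates and 10 μM ATP in each reaction.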

[2] = biological target: T2, NEK11 (Homo sapiens, UniProt Q8NG66)
T2 construct: purchased Reaction Biology Corporation
Method in brief: as §1

[3] = biological target: T3, NEK3 (Homo sapiens, UniProt P51956)
T3 construct: purchased Reaction Biology Corporation
Method in brief: as §1

[4] = biological target: T4, PKCb2 (Homo sapiens, UniProt P05771)
T4 construct: purchased Reaction Biology Corporation
Method in brief: as §1

[5] = biological target: T5, ERBB2/HER2 (Homo sapiens, UniProt P04626)
T5 construct: purchased Reaction Biology Corporation
Method in brief: as §1

[6] = biological target: T6, CDK1/cyclin E (Homo sapiens, UniProt P06493)
T6 construct: purchased Reaction Biology Corporation
Method in brief: as §1

[7] = biological target: T7, MRCKb/CDC42BPB (Homo sapiens, UniProt Q9Y5S2)
T7 construct: purchased Reaction Biology Corporation
Method in brief: as §1

[8] = biological target: T8, ALK5/TGFBR1 (Homo sapiens, UniProt P36897)
T8 construct: purchased Reaction Biology Corporation
Method in brief: as §1

[9] = biological target: T9, RSK2 (Homo sapiens, UniProt P51812)
T9 construct: purchased Reaction Biology Corporation
Method in brief: as §1

[10] = biological target: T10, TESK1 (Homo sapiens, UniProt Q15569)
T10 construct: purchased Reaction Biology Corporation
T10 sequence (Q15569 whole entry): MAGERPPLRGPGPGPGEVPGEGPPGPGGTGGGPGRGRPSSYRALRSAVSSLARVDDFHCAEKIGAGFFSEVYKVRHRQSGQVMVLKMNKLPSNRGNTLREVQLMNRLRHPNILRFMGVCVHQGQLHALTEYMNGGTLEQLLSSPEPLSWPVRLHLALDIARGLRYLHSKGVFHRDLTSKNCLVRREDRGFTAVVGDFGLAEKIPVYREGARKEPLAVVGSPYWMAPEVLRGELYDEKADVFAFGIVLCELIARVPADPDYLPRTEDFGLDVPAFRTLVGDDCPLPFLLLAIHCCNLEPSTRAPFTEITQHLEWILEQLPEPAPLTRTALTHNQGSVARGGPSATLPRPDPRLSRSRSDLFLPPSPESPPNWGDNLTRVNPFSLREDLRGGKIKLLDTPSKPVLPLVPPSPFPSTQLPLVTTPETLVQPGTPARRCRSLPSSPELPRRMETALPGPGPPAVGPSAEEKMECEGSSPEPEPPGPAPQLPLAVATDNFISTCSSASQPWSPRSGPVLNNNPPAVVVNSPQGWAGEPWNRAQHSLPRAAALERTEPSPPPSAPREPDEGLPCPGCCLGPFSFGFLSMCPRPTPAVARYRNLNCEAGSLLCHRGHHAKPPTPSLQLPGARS
Method in brief: as §1

[11] = biological target: T11, ZAK/MLTK (Homo sapiens, UniProt Q9NYL2)
T11 construct: purchased Reaction Biology Corporation
Method in brief: as §1

[12] = biological target: T12, PKCnu/PRKD3 (Homo sapiens, UniProt O94806)
T12 construct: purchased Reaction Biology Corporation
Method in brief: as §1

[13] = biological target: T13, CDK2/cyclin O (Homo sapiens, UniProt P24941)
T13 construct: purchased Reaction Biology Corporation
Method in brief: as §1

[14] = biological target: T14, EPHA2 (Homo sapiens, UniProt P29317)
T14 construct: purchased Reaction Biology Corporation
T14 sequence (P29317 24-976): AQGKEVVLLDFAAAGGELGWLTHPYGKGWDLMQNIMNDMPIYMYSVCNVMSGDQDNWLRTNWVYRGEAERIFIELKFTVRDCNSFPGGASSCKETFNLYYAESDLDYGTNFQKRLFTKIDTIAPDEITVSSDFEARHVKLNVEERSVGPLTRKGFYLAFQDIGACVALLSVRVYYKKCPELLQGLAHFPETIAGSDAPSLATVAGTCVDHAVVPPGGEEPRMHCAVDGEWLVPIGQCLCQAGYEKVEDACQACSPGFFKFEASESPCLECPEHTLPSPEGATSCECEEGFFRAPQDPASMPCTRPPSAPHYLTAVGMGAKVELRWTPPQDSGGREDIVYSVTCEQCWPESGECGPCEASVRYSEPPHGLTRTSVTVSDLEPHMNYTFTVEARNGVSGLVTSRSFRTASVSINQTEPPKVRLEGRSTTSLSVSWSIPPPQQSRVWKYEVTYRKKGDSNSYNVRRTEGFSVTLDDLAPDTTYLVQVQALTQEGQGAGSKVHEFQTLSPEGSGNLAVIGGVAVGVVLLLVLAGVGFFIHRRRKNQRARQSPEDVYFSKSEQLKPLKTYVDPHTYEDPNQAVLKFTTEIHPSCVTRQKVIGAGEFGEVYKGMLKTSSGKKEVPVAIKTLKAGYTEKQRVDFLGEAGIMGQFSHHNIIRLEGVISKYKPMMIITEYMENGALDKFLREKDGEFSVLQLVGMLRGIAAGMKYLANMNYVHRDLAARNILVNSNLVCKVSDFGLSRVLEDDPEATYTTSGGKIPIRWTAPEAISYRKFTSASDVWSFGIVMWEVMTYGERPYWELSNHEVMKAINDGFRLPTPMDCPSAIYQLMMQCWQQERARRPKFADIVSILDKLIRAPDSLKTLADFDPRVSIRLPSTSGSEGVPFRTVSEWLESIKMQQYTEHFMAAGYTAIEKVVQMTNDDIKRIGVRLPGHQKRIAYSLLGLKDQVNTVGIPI
Method in brief: as §1

[15] = biological target: T15, PKCd (Homo sapiens, UniProt Q05655)
T15 construct: purchased Reaction Biology Corporation
Method in brief: as §1

[16] = biological target: T16, DDR1 (Homo sapiens, UniProt Q08345)
T16 construct: purchased Reaction Biology Corporation
Method in brief: as §1

[17] = biological target: T17, CDK9/cyclin K (Homo sapiens, UniProt P50750)
T17 construct: purchased Reaction Biology Corporation
Method in brief: as §1

[18] = biological target: T18, RIPK4 (Homo sapiens, UniProt P57078)
T18 construct: purchased Reaction Biology Corporation
T18 sequence (P57078 whole entry): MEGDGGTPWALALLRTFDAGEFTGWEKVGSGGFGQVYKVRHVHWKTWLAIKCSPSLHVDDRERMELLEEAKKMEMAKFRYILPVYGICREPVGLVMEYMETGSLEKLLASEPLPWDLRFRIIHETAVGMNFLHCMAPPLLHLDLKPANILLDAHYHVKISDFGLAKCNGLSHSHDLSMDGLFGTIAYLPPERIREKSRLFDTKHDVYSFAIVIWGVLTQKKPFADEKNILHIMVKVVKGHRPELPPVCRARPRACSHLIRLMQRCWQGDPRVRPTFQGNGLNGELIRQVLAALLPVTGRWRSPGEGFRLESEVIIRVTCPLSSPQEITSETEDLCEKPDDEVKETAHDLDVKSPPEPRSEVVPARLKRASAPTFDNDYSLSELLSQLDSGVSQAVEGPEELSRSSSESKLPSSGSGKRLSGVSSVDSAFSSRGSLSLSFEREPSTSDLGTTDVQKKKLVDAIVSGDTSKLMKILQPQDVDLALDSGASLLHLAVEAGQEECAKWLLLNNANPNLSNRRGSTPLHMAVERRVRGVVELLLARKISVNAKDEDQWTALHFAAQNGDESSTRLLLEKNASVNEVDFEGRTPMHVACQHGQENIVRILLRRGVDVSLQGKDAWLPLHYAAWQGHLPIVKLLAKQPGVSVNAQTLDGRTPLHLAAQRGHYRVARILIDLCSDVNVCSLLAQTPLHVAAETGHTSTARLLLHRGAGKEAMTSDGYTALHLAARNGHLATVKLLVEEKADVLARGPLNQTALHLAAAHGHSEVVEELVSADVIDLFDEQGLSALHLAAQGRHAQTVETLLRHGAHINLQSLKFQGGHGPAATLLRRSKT
Method in brief: as §1

[19] = biological target: T19, KHS/MAP4K5 (Homo sapiens, UniProt Q9Y4K4)
T19 construct: purchased Reaction Biology Corporation
Method in brief: as §1

[20] = biological target: T20, PKG1a (Homo sapiens, UniProt Q13976)
T20 construct: purchased Reaction Biology Corporation
T20 sequence (Q13976 whole entry): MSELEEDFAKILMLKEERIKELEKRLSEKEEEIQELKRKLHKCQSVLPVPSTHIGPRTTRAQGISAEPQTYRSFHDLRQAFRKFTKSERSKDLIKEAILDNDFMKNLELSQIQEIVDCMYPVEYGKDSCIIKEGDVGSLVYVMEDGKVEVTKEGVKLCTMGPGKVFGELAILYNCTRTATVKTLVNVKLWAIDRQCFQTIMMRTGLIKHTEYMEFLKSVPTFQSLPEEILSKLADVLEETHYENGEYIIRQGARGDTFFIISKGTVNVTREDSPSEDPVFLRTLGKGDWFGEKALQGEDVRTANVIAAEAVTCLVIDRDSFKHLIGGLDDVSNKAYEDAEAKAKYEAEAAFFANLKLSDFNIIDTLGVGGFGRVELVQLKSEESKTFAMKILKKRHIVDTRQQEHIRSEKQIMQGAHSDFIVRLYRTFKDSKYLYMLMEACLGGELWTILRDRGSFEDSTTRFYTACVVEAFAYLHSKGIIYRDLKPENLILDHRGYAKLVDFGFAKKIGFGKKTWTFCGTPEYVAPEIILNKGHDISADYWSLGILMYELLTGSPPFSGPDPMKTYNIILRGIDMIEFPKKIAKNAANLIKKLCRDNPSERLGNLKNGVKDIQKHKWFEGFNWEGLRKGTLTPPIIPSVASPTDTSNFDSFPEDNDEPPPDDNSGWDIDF
Method in brief: as §1

[21] = biological target: T21, ALK2/ACVR1 (Homo sapiens, UniProt Q04771)
T21 construct: purchased Reaction Biology Corporation
Method in brief: as §1

[22] = biological target: T22, CDK9/cyclin T2 (Homo sapiens, UniProt P50750)
T22 construct: purchased Reaction Biology Corporation
Method in brief: as §1

[23] = biological target: T23, ACK1 (Homo sapiens, UniProt Q07912)
T23 construct: purchased Reaction Biology Corporation
Method in brief: as §1

[24] = biological target: T24, MST2/STK3 (Homo sapiens, UniProt Q13188)
T24 construct: purchased Reaction Biology Corporation
Method in brief: as §1

[25] = biological target: T25, CDK2/cyclin E (Homo sapiens, UniProt P24941)
T25 construct: purchased Reaction Biology Corporation
Method in brief: as §1

[26] = biological target: T26, ERK2/MAPK1 (Homo sapiens, UniProt P28482)
T26 construct: purchased Reaction Biology Corporation
Method in brief: as §1

[27] = biological target: T27, KSR2 (Homo sapiens, UniProt Q6VAB6)
T27 construct: purchased Reaction Biology Corporation
T27 sequence (Q6VAB6 whole entry): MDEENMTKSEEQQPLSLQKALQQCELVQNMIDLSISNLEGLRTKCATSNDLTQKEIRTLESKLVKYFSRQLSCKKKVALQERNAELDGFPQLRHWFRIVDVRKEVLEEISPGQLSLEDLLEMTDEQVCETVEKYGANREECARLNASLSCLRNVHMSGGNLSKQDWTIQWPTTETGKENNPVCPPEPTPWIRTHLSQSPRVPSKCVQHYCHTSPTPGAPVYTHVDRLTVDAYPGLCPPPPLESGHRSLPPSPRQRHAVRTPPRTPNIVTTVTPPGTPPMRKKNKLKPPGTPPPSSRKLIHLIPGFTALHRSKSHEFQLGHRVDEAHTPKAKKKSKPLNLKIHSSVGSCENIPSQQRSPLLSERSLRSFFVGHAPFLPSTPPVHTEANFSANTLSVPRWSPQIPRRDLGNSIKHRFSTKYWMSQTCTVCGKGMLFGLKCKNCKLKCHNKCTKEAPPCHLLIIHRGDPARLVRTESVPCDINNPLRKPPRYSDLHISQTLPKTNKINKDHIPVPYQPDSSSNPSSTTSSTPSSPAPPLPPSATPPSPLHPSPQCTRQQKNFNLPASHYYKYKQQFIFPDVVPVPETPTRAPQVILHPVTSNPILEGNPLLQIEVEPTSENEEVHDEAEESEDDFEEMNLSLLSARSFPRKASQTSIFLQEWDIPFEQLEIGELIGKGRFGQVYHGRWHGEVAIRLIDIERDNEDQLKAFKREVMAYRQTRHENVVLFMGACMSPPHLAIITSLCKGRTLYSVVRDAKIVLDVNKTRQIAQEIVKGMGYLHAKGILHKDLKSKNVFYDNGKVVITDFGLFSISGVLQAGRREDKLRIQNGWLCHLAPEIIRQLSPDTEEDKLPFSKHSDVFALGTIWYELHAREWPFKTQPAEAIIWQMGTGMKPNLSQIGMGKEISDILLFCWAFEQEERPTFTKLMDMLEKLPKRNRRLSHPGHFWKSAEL
Method in brief: as §1

[28] = biological target: T28, FER (Homo sapiens, UniProt P16591)
T28 construct: purchased Reaction Biology Corporation
Method in brief: as §1

[29] = biological target: T29, ALK3/BMPR1A (Homo sapiens, UniProt P36894)
T29 construct: purchased Reaction Biology Corporation
Method in brief: as §1

[30] = biological target: T30, ERK5/MAPK7 (Homo sapiens, UniProt Q13164)
T30 construct: purchased Reaction Biology Corporation
Method in brief: as §1

[31] = biological target: T31, NEK5 (Homo sapiens, UniProt Q6P3R8)
T31 construct: purchased Reaction Biology Corporation
Method in brief: as §1

[32] = biological target: T32, NEK4 (Homo sapiens, UniProt P51957)
T32 construct: purchased Reaction Biology Corporation
Method in brief: as §1

[33] = biological target: T33, TESK2 (Homo sapiens, UniProt Q96S53)
T33 construct: purchased Reaction Biology Corporation
Method in brief: as §1

T1 sequence (Q16832 22-855): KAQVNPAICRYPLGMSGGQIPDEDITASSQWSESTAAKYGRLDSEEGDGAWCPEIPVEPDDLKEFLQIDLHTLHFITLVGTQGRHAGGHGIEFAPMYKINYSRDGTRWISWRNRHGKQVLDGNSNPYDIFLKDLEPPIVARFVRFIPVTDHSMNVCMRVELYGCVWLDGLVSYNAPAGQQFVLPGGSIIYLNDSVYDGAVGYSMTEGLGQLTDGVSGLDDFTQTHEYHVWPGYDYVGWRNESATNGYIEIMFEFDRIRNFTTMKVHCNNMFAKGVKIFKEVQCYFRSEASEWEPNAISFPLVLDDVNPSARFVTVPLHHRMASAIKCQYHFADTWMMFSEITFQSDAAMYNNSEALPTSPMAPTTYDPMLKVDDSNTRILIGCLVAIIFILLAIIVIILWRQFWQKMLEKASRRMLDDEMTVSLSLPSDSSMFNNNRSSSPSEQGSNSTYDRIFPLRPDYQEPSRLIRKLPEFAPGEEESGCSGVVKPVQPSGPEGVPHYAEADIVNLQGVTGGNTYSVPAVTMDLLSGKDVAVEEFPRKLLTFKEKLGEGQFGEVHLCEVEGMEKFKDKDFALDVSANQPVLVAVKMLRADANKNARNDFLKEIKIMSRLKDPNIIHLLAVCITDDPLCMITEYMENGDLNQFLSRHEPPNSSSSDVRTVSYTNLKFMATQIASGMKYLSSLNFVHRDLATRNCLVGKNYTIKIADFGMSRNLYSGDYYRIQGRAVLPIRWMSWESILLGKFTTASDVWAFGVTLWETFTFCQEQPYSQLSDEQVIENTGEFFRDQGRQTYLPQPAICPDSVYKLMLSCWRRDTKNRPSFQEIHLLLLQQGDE

`CC(=O)Nc1nc2ccc(-c3cnc(C)c(NC(=O)OC4CCCCC4)c3)cc2s1` [PK68, cyclohexyl (5-(2-acetamidobenzo[d]thiazol-6-yl)-2-methylpyridin-3-yl)carbamate] showed an Activity% ([1]; 1 μM) of 103.50%, an activity at 1 µM [1] of 105% and an Activity% ([2]; 1 μM) of 81.13%. It also gave an activity at 1 µM [2] of 85.4%, an Activity% ([3]; 1 μM) of 116.50% and an activity at 1 µM [3] of 119%. The Activity% ([4]; 1 μM) was 98.56%, the activity at 1 µM [4] was 100% and the Activity% ([5]; 1 μM) was 97.32%. For the same molecule, the activity at 1 µM [5] was 99.1%, the Activity% ([6]; 1 μM) was 101.92% and the activity at 1 µM [6] was 102%. The Activity% ([7]; 1 μM) was 101.65%, the activity at 1 µM [7] was 104% and the Activity% ([8]; 1 μM) was 94.67%. It also gave an activity at 1 µM [8] of 95.1%, an Activity% ([9]; 1 μM) of 90.87% and an activity at 1 µM [9] of 92.3%. The Activity% ([10]; 1 μM) was 111.93%, the activity at 1 µM [10] was 118% and the Activity% ([11]; 1 μM) was 66.51%. It also gave an activity at 1 µM [11] of 68.6%, an Activity% ([12]; 1 μM) of 101.06% and an activity at 1 µM [12] of 102%. For the same molecule, the Activity% ([13]; 1 μM) was 98.77%, the activity at 1 µM [13] was 99.8% and the Activity% ([14]; 1 μM) was 94.92%. The activity at 1 µM [14] was 95.2%, the Activity% ([15]; 1 μM) was 100.58% and the activity at 1 µM [15] was 101%. For the same molecule, the Activity% ([16]; 1 μM) was 80.91%, the activity at 1 µM [16] was 81.7% and the Activity% ([17]; 1 μM) was 104.96%. It also gave an activity at 1 µM [17] of 106%, an Activity% ([18]; 1 μM) of 92.60% and an activity at 1 µM [18] of 94.5%. For the same molecule, the Activity% ([19]; 1 μM) was 75.34%, the activity at 1 µM [19] was 76.5% and the Activity% ([20]; 1 μM) was 90.22%. It also gave an activity at 1 µM [20] of 90.3%, an Activity% ([21]; 1 μM) of 101.72% and an activity at 1 µM [21] of 103%. It also gave an Activity% ([22]; 1 μM) of 88.23%, an activity at 1 µM [22] of 90.7% and an Activity% ([23]; 1 μM) of 84.41%. The activity at 1 µM [23] was 85.5%, the Activity% ([24]; 1 μM) was 109.16% and the activity at 1 µM [24] was 109%. The Activity% ([25]; 1 μM) was 91.99%, the activity at 1 µM [25] was 93.5% and the Activity% ([26]; 1 μM) was 92.60%. For the same molecule, the activity at 1 µM [26] was 96.9%, the Activity% ([27]; 1 μM) was 99.64% and the activity at 1 µM [27] was 100%. For the same molecule, the Activity% ([28]; 1 μM) was 100.70%, the activity at 1 µM [28] was 102% and the Activity% ([29]; 1 μM) was 103.05%. The activity at 1 µM [29] was 105%, the Activity% ([30]; 1 μM) was 98.25% and the activity at 1 µM [30] was 99.3%. The Activity% ([31]; 1 μM) was 95.10%, the activity at 1 µM [31] was 95.5% and the Activity% ([32]; 1 μM) was 97.97%. For the same molecule, the activity at 1 µM [32] was 98.9%, the Activity% ([33]; 1 μM) was 92.21% and the activity at 1 µM [33] was 94.3%.

Reference: article PMC6591251, “Discovery of potent necroptosis inhibitors targeting RIPK1 kinase activity for the treatment of inflammatory disorder and cancer metastasis” (Cell Death & Disease, 2019)
